{"source": "patent US20050074827A1", "about": "“Methods for identifying modulators of quorum-sensing signaling in bacteria” (priority 2003, published 2005)", "key": {"[1]": {"conditions": "cell-based binding assay, Passador et al., J. Bacteriol. 178: 5995-6000 (1996); read-out: half-maximal saturation; cited from earlier work"}, "[2]": {"test_system": "LasR-controlled promoter PrsaL (yfp reporter) in MW1.pUM15", "test": "Titration of yfp expression in MW1.pUM15 against autoinducer concentration", "format": "cell-based, Pseudomonas aeruginosa", "text": "Strain Construction. We tested whether the P. aeruginosa quorum-sensing-controlled promoter for the rsaL gene (PrsaL) can be used in high-throughput screening to identify modulators of quorum-sensing signaling. We constructed a plasmid (designated pUM15) with yfp under control of the P. aeruginosa LasR-controlled promoter PrsaL and introduced the plasmid into P. aeruginosa wild-type strain PAO1 (designated PAO1.pUM15). In PAO1.pUM15, the expression of yfp is dependent on the endogenously synthesized autoinducer, 3-oxo-C12-HSL. Thus, fluorescence will be altered if a test compound modulates any aspect of signaling, including, e.g., signal synthesis, stability, reception, or expression of LasR-dependent genes. Accordingly, we designated this assay the “Complete Signaling Assay” or CSA. […]\nMeasurement of Reporter Gene Product. We measured fluorescence with an excitation filter at 485 nm and an emission filter at 535 nm in a Tecan SPECTRAFluor Plus plate reader. […]\nExpression Depends on Autoinducer. […] We detected very little fluorescence in MW1.pUM15 culture grown in the absence of signal molecule (FIG. 1).\nThe Assay Mimics Naturally Occurring Quorum-Sensing Signaling. […] We observed that fluorescence in MW1.pUM15 is half-maximal at 200±100 nM 3-oxo-C12-HSL (FIG. 2). […] We also confirmed that expression of yfp is quorum-sensing dependent by graphing fluorescence per cell against cell density (FIG. 3). […]"}}, "data": [{"smiles": "CCCCCCCCCC(=O)CC(=O)NC1CCOC1=O", "note": "(stereo not drawn) [3-oxo-C12-HSL]", "values": [{"measurement": "Kd", "setting": "[1]", "result": 200, "unit": "nM"}, {"measurement": "EC50", "setting": "[2]; MW1.pUM15, yfp fluorescence, FIG. 2, read-out: 3-oxo-C12-HSL concentration at which fluorescence in MW1.pUM15 is half-maximal", "result": "200 ± 100", "unit": "nM"}, {"measurement": "effect on yfp expression in MW1.pUM15", "setting": "[2]; addition of autoinducer, 0.9 mM per FIG. 1 legend", "result": "restored expression of yfp"}]}]}
